In article PMC8301576 (Clinical and Translational Science, 2021):
Several values for one entry are separate records, joined by “and”; a condition that tells them apart may be missing. Equal values may be shown once. Read-outs that look alike come from different tables or passages of the source.

What was measured:
[1] = Trial 2: treatment-emergent adverse events; type: in vivo, human
[2] = tested on: sodium‐dependent taurocholate co‐transporting polypeptide (NTCP); settings: cited from earlier work
[3] = Trial 1: treatment-emergent adverse events; type: in vivo, human
OATP1B1 = target: T1, OATP1B1 (Homo sapiens, UniProt Q9Y6L6); type: in vivo
T1 sequence (Q9Y6L6 1-691): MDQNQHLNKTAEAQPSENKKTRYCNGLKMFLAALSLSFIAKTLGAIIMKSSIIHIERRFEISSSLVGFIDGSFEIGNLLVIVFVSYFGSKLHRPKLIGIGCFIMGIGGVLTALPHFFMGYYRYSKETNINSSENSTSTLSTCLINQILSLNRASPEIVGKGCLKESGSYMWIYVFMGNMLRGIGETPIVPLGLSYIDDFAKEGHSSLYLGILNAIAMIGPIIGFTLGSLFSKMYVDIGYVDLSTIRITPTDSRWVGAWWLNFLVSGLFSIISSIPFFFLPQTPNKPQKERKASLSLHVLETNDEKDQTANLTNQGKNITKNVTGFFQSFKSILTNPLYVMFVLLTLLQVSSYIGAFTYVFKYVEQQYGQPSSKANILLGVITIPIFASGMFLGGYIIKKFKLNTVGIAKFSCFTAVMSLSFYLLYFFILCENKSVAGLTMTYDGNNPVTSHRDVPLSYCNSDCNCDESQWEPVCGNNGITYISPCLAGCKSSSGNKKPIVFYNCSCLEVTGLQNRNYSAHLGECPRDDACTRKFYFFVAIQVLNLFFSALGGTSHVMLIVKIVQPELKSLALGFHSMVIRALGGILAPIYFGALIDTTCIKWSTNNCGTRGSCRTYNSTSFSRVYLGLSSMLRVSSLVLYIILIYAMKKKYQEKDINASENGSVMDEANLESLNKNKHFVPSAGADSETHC

BCRP [4] = target: T2, BCRP (Homo sapiens, UniProt Q9UNQ0); assay: Trial 1: clinical DDI, rosuvastatin with TLV vs rosuvastatin alone; type: in vivo
T2 sequence (Q9UNQ0 1-655): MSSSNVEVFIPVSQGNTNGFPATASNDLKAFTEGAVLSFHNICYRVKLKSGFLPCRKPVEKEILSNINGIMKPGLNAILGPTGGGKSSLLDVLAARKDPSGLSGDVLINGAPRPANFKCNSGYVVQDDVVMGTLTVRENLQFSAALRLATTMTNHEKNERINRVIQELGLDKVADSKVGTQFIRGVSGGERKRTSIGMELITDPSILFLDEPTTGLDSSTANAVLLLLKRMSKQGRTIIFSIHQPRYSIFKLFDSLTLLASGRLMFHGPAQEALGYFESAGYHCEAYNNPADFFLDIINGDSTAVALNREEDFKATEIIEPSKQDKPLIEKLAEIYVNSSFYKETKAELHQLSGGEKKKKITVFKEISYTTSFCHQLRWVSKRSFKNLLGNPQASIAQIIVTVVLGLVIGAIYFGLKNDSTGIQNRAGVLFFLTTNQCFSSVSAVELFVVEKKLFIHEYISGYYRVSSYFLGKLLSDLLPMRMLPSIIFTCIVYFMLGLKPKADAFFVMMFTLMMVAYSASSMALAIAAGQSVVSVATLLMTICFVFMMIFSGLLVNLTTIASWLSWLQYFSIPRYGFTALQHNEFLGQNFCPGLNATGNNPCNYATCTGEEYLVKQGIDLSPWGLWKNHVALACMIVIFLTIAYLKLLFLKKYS

[5] = Trial 1: plasma pharmacokinetics in healthy subjects; type: in vivo, human
BCRP [6] = target: T2, BCRP; assay: Prazosin transport in MDCKII BCRP expressing cells; settings: 90-mg TLV dose (200 µmol) assumed completely soluble in 250 ml
[7] = cited from earlier work; for Solubility: pH independent
[8] = tested on: sandwich‐cultured human hepatocytes; settings: cited from earlier work
[9] = cited from earlier work
[10] = predicted; cited from earlier work
[11] = Earlier clinical data on TLV and DM-4103; type: in vivo, human; settings: from elimination half-life
[12] = Trial 2: plasma pharmacokinetics in healthy subjects; type: in vivo, human; settings: 48 h postdose after 7 days 300 mg TLV q.d.
OAT3 = target: T3, OAT3 (Homo sapiens, UniProt Q8TCC7); assay: Trial 2: clinical DDI, furosemide in presence of DM-4103 vs furosemide alone; type: in vivo; settings: at clinically relevant concentrations
T3 sequence (Q8TCC7 1-542): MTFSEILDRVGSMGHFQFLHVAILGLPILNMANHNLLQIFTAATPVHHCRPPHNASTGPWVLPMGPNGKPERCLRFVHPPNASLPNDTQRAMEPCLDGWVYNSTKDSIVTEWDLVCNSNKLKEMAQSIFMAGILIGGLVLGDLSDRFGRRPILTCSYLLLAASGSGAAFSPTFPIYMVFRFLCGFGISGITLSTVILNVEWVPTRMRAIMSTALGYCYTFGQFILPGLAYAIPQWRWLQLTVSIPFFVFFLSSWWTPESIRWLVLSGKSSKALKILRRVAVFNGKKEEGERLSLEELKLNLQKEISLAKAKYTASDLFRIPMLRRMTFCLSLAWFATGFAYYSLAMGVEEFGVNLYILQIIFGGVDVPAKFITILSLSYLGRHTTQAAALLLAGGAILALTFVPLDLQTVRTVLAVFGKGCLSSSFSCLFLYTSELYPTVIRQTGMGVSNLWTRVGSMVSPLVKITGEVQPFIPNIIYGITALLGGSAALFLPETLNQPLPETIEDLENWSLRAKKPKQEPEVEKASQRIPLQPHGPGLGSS

Plasma protein binding = type: in vitro ADME
[13] = rosuvastatin + 90 mg tolvaptan vs rosuvastatin alone, n = 14
[14] = trial 1, period 3 (TLV alone, 300 mg q.d.)
[15] = trial 2, period 2 (TLV alone, 300 mg q.d.)

NS(=O)(=O)c1cc(C(=O)O)c(NCc2ccco2)cc1Cl [Furosemide, furosemide]
TEAE incidence: polyuria ([1]; trial 2, period 1 (furosemide alone)): 64.3%
TEAE incidence: headache ([1]; trial 2, period 3 (furosemide in presence of DM-4103)): 21.4%

CC(C)c1nc(N(C)S(C)(=O)=O)nc(-c2ccc(F)cc2)c1/C=C/[C@@H](O)C[C@@H](O)CC(=O)O [ROS, rosuvastatin]
Share of rosuvastatin uptake accounted for by NTCP alone ([2]; human hepatocyte studies): ~ 35%
TEAE incidence: nausea ([3]; trial 1, period 1 (rosuvastatin)): 12.5%
TEAE incidence: headache ([3]; trial 1, period 3 (rosuvastatin in presence of DM-4103)): 14.3%
Geometric mean ratio (90% CI), AUC∞ (OATP1B1; rosuvastatin in presence of DM-4103 vs rosuvastatin alone, n = 5): 0.998^b 0.876–1.138
Geometric mean ratio (90% CI), AUC∞ (BCRP [4]; rosuvastatin + 90 mg tolvaptan vs rosuvastatin alone, n = 6): 1.281^a 1.148–1.429
Geometric mean ratio (90% CI), AUCt (BCRP [4]; [13]): 1.69
Geometric mean ratio (90% CI), Cmax (BCRP [4]; [13]): 1.54
Tmax ([5]; 5 mg ROS alone, median (minimum-maximum)): 3.50 (2.00–6.00) h
AUC(0-inf) ([5]; human, plasma, oral, 5 mg, AUC∞, 5 mg ROS alone, minimum-maximum, n = 7): 20.3 to 36 ng·h/mL
CL/F ([5]; human, plasma, oral, 5 mg, CL/F, 5 mg ROS alone, minimum-maximum, n = 7): 28.5 to 68.2 mL/min/kg
half-life ([5]; human, plasma, oral, 5 mg, t1/2,z, 5 mg ROS alone, minimum-maximum, n = 7): 2.4 to 4.3 h

Cc1ccccc1C(=O)Nc1ccc(C(=O)N2CCCC(O)c3cc(Cl)ccc32)c(C)c1 (stereo not shown) [TLV, Tolvaptan]
NTCP inhibition ([2]; IC50 value higher than Cmax): inhibitor of NTCP
TEAE incidence: constipation [3, 14]: 14.3%
TEAE incidence: dry mouth [3, 14]: 14.3%
TEAE incidence: nausea [3, 14]: 21.4%
TEAE incidence: pollakiuria [3, 14]: 71.4%
Predicted concentration of dose in 250 ml (Igut) (BCRP [6]): 800 µM
TEAE incidence: constipation [1, 15]: 14.3%
TEAE incidence: dizziness [1, 15]: 14.3%
TEAE incidence: dry mouth [1, 15]: 21.4%
TEAE incidence: headache [1, 15]: 14.3%
TEAE incidence: insomnia [1, 15]: 14.3%
TEAE incidence: polyuria [1, 15]: 100%
TEAE incidence: thirst [1, 15]: 92.9%
Increase of in vitro solubility by spray-dried formulation ([7]; TLV tablets, spray-dried technique): up to sevenfold
Solubility [7]: ~ 0.01 g/250 ml
Solubility ([7]; in Discussion): about 0.01 mg/250 ml and ~ 0.09 µM
Accumulation in sandwich-cultured human hepatocytes [8]: at least 10 fold
Safety and tolerability ([9]; 300 mg TLV for 5 days, healthy subjects): safe and well‐tolerated
half-life [9]: about 3.5 h
Clinical inhibition of BCRP (BCRP [4]; 90 mg TLV with 5 mg rosuvastatin calcium): No clinically relevant inhibition
Liver:blood ratio [10]: 38.76

Cc1ccccc1C(=O)Nc1ccc(C(=O)Nc2ccc(Cl)cc2C(=O)CCC(=O)O)c(C)c1 [DM‐4103]
Time to steady-state concentrations after start of TLV dosing [11]: ~ 8 weeks
Clinical inhibition of OATP1B1 (OATP1B1; at clinically relevant concentrations): not an inhibitor
Plasma concentration, mean (SD) [12]: 6430 (2030) ng/ml
Clinical inhibition of OAT3 (OAT3): not an inhibitor
Mean steady-state plasma concentration ([9]; 90 + 30 mg TLV regimen in subjects with ADPKD, ref data on file): ~ 7500 ng/ml and ~15.7 µM
Elimination half-life [9]: ~ 180 h
Plasma concentrations ([9]; first 2 h following a 90 mg TLV dose, ref data on file): less than 100 ng/ml
Plasma protein binding (Plasma protein binding): greater than 99.8%
Plasma concentration, mean (SD) ([5]; trial 1, 48 h postdose after 7 days 300 mg TLV q.d.): 7240 (1880) ng/ml
